Consider one substance from US5013542A, “Method to inhibit adhesion of disease-causing microorganisms to teeth” (Forsyth Dental Infirmary for Children, priority 1988, dated 1991).

Holding throughout (assay): Adhesion of radioactively labeled bacteria to treated hydroxyapatite (HA)
Holding throughout (format): cell-based

One assay concerns Streptococcus mitis. On the procedure:
(§1) PRP-1 and PRP-1(Tl) were investigated for their abilities to promote adhesion of bacteria to HA. Essentially, the method is to treat HA samples with nothing (negative control), saliva (positive control), or the respective proteins or peptides. The excess agent is removed by washing, and suspensions of radioactively labeled bacteria are added to the treated HA. After a suitable time, the excess bacteria are removed by washing and those remaining adsorbed to the HA are counted in a scintillation counter. In the table of results, bacterial adsorption to saliva-treated HA is considered to be 100%, and adsorption to PRP-1 or PRP-1(Tl)-treated HA expressed as a percentage of this reference value. This approach is necessary because of the diverse behaviors of different bacteria.

The test system of a further assay is Streptococcus mutans. On the procedure:
as §1

For the next assay, the system named is Bacteroides gingivalis. The method, then:
as §1

The next assay has as its system Actinomyces viscosus. On the procedure: as §1
The test system of the next assay is Streptococcus sanguis. On the procedure:
as §1

[1] abbreviates: HA treated with the protein/peptide, saliva-treated HA = 100%.

Where no end group is shown, it is not given here.

On to “PRP-1(T1): residues 1-30, highly acidic phosphoserine-containing amino-terminal segment of PRP-1 obtained by tryptic digestion at ARG(30) (QDLDEDVSQEDVPLVISDGGDSEQFIDEER; also: phosphoserine-containing, positions not given here; UniProt P02810 17-46, looked up, fragment)”, for which the “PERCENT ADHESION COMPARED TO SALIVA-TREATED HA” value in the assay on Streptococcus mitis (setting [1]) is recorded as 26%; in the assay with Streptococcus mutans (setting [1]), 17%; in the assay with Bacteroides gingivalis (Bacteroides gingivalis, HA treated with the protein/peptide, saliva-treated HA = 100%), 20%; in the assay with Actinomyces viscosus (setting [1]) it was 17%; in the assay on Streptococcus sanguis (Streptococcus sanguis, HA treated with the protein/peptide, saliva-treated HA = 100%) it was 4%. Further, the “adhesion of organism to treated HA (in words)” value with Streptococcus mitis (versus saliva-treated HA) was “significantly and profoundly depressed”; in the assay with Streptococcus mutans (versus saliva-treated HA) it was “significantly and profoundly depressed”; in the assay with Bacteroides gingivalis (B. gingivalis, versus saliva-treated HA) it was “significantly and profoundly depressed”; in the assay with Actinomyces viscosus (versus saliva-treated HA), “significantly and profoundly depressed”; with Streptococcus sanguis (S. sanguis, versus saliva-treated HA), “significantly and profoundly depressed”.
